Key:
[1] = target: T1, hGlyT2 transporter (full-length) (Homo sapiens, UniProt Q9Y345, G24S/N188D/Q362L/R74W/S155G/T582S/V431A); conditions: full-length hGlyT2, COS-7 cells
T1 sequence (Q9Y345 1-797 G24S/R74W/S155G/N188D/Q362L/V431A/T582S): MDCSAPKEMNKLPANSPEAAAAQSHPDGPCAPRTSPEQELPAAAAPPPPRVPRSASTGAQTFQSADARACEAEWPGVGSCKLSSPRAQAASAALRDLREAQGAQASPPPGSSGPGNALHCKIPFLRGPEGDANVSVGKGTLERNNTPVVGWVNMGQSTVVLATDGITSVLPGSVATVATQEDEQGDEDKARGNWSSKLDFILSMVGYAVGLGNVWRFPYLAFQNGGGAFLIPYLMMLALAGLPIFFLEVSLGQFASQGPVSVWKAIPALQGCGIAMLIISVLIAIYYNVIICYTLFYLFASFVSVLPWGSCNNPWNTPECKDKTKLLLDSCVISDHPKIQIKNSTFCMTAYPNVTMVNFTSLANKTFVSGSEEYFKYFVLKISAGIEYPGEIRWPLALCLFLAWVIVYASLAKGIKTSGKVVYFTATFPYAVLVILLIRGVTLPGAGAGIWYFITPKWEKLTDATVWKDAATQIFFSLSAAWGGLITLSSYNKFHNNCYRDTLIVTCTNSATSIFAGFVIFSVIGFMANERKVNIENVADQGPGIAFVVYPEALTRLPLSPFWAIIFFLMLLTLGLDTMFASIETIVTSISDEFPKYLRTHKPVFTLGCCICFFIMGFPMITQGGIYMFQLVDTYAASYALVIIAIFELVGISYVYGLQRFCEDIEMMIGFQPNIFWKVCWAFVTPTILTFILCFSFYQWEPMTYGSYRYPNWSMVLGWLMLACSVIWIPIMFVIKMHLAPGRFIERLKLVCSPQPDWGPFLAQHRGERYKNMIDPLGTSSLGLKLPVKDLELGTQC

[2] = target: T2, truncated hGlyT2 (start at Met-154, lacking the first 153 amino acids) (Homo sapiens, UniProt Q9Y345, N188D/Q362L/S155G/T582S/V431A); conditions: truncated hGlyT2, COS-7 cells
T2 sequence (Q9Y345 154-797 S155G/N188D/Q362L/V431A/T582S): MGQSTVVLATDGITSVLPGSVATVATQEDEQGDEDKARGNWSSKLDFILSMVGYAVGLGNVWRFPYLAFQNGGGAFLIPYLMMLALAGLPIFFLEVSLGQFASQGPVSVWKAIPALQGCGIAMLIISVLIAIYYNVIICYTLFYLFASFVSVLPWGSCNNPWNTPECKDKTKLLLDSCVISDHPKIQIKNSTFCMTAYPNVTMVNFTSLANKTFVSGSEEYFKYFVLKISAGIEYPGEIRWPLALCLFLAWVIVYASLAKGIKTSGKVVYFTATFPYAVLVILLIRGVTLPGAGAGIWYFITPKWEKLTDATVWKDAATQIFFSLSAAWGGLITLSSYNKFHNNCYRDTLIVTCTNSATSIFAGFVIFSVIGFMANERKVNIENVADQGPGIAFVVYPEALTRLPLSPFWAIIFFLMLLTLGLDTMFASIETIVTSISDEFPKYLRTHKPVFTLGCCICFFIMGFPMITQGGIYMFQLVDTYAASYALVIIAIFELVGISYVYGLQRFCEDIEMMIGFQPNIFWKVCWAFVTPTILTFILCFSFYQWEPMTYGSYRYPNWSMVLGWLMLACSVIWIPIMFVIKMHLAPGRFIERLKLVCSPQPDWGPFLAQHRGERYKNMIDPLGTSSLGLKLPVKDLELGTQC

[3] = target: T3, rat GlyT2 (Rattus norvegicus, UniProt P58295); conditions: Liu et al. 1993, cited from earlier work
T3 sequence (P58295 1-799): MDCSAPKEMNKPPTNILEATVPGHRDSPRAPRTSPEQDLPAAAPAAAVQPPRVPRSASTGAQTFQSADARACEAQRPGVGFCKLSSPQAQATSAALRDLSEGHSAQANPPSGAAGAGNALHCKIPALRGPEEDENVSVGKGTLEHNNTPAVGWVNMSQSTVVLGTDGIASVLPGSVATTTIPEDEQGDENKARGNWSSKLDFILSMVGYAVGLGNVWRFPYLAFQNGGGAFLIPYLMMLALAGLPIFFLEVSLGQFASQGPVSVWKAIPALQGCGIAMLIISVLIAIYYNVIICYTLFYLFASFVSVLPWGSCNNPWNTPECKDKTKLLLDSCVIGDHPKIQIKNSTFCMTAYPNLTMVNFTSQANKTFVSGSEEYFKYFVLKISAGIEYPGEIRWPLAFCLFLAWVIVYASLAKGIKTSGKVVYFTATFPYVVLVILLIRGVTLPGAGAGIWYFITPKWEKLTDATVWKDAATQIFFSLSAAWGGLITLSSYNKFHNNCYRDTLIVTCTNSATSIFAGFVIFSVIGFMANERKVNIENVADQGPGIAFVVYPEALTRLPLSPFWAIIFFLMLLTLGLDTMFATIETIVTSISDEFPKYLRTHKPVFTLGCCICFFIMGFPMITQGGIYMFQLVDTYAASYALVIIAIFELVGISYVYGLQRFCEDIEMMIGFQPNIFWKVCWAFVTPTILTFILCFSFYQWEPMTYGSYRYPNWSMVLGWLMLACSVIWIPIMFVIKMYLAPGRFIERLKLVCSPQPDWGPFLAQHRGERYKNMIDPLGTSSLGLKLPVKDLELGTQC

[4] = target: T4, GlyT1 (Homo sapiens, UniProt P48067); conditions: sarcosine concentration exceeds 200 μM; cited from earlier work
T4 sequence (P48067 1-706): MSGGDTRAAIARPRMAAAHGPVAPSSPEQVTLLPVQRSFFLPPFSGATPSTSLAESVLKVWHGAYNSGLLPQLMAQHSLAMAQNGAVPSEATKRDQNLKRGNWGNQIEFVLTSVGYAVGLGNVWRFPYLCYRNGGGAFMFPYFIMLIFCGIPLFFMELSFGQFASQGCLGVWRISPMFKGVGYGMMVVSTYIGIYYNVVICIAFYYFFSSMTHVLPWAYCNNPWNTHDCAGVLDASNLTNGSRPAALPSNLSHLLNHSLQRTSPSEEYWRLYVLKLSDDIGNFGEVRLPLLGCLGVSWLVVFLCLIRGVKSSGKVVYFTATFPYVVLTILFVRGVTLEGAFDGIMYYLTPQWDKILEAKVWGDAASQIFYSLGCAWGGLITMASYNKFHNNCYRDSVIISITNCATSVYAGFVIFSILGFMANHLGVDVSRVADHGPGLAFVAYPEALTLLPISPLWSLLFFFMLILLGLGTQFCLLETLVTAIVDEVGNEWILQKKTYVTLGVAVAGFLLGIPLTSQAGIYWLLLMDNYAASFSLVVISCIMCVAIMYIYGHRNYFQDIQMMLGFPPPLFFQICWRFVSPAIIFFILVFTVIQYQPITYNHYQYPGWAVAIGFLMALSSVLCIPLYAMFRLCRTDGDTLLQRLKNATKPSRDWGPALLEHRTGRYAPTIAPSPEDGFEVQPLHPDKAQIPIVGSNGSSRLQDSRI

[5] = substrate: NCC(=O)O; assay: cells, lysate or membranes; conditions: pH 7.4
[6] = 1 mM sarcosine, 15 min pretreatment

What does the source list for `NCC(=O)O` [glycine]?
Vmax of glycine uptake (Eadie-Hofstee) [1]: 190±3 pmol glycine/mg protein/min; Vmax of glycine uptake [2]: 67±3 pmol glycine/mg protein/min; Km ([3]; read-out: Km reported for rat GlyT2): 13 µM

Which “reduction of glycine uptake” value [1, 6] does the source give for `CNCC(=O)O` [sarcosine] here?
Its value is “less than 15%”.

And the “effect of increasing concentrations of sarcosine on glycine uptake (FIG. 5)” value [1]?
The value was “insensitive to sarcosine inhibition”.

And the “reduction of glycine uptake” value [2, 6]?
Its value is “less than 15%”.

And the “effect of increasing concentrations of sarcosine on glycine uptake (FIG. 5)” value [2]?
Its value is “insensitive to sarcosine inhibition”.

What about the “inhibition of rat GlyT2-mediated glycine uptake” value ([3]; sarcosine 1 mM) of the same molecule?
Its value is 10-20%.

What about the “inhibition of GlyT1-mediated glycine uptake” value [4] of the same molecule?
Its value is “almost completely inhibited”.

B1: hGlyT2 transporter (full-length) (Homo sapiens; G24S/N188D/Q362L/R74W/S155G/T582S/V431A) (protein)
chain: MDCSAPKEMNKLPANSPEAAAAQSHPDGPCAPRTSPEQELPAAAAPPPPRVPRSASTGAQTFQSADARACEAEWPGVGSCKLSSPRAQAASAALRDLREAQGAQASPPPGSSGPGNALHCKIPFLRGPEGDANVSVGKGTLERNNTPVVGWVNMGQSTVVLATDGITSVLPGSVATVATQEDEQGDEDKARGNWSSKLDFILSMVGYAVGLGNVWRFPYLAFQNGGGAFLIPYLMMLALAGLPIFFLEVSLGQFASQGPVSVWKAIPALQGCGIAMLIISVLIAIYYNVIICYTLFYLFASFVSVLPWGSCNNPWNTPECKDKTKLLLDSCVISDHPKIQIKNSTFCMTAYPNVTMVNFTSLANKTFVSGSEEYFKYFVLKISAGIEYPGEIRWPLALCLFLAWVIVYASLAKGIKTSGKVVYFTATFPYAVLVILLIRGVTLPGAGAGIWYFITPKWEKLTDATVWKDAATQIFFSLSAAWGGLITLSSYNKFHNNCYRDTLIVTCTNSATSIFAGFVIFSVIGFMANERKVNIENVADQGPGIAFVVYPEALTRLPLSPFWAIIFFLMLLTLGLDTMFASIETIVTSISDEFPKYLRTHKPVFTLGCCICFFIMGFPMITQGGIYMFQLVDTYAASYALVIIAIFELVGISYVYGLQRFCEDIEMMIGFQPNIFWKVCWAFVTPTILTFILCFSFYQWEPMTYGSYRYPNWSMVLGWLMLACSVIWIPIMFVIKMHLAPGRFIERLKLVCSPQPDWGPFLAQHRGERYKNMIDPLGTSSLGLKLPVKDLELGTQC
With B1 as the molecule, how does the Km ([5]; other: full-length hGlyT2, COS-7 cells, 15 min at 37° C.) read?
Its Km is 10 ± 0.4 µM.

B2: truncated hGlyT2 (start at Met-154, lacking the first 153 amino acids) (Homo sapiens; N188D/Q362L/S155G/T582S/V431A) (protein)
chain: MGQSTVVLATDGITSVLPGSVATVATQEDEQGDEDKARGNWSSKLDFILSMVGYAVGLGNVWRFPYLAFQNGGGAFLIPYLMMLALAGLPIFFLEVSLGQFASQGPVSVWKAIPALQGCGIAMLIISVLIAIYYNVIICYTLFYLFASFVSVLPWGSCNNPWNTPECKDKTKLLLDSCVISDHPKIQIKNSTFCMTAYPNVTMVNFTSLANKTFVSGSEEYFKYFVLKISAGIEYPGEIRWPLALCLFLAWVIVYASLAKGIKTSGKVVYFTATFPYAVLVILLIRGVTLPGAGAGIWYFITPKWEKLTDATVWKDAATQIFFSLSAAWGGLITLSSYNKFHNNCYRDTLIVTCTNSATSIFAGFVIFSVIGFMANERKVNIENVADQGPGIAFVVYPEALTRLPLSPFWAIIFFLMLLTLGLDTMFASIETIVTSISDEFPKYLRTHKPVFTLGCCICFFIMGFPMITQGGIYMFQLVDTYAASYALVIIAIFELVGISYVYGLQRFCEDIEMMIGFQPNIFWKVCWAFVTPTILTFILCFSFYQWEPMTYGSYRYPNWSMVLGWLMLACSVIWIPIMFVIKMHLAPGRFIERLKLVCSPQPDWGPFLAQHRGERYKNMIDPLGTSSLGLKLPVKDLELGTQC
Which Km ([5]; other: truncated hGlyT2, COS-7 cells, 37.0 °C) does the source give for B2 here?
Its Km is 9 ± 1 µM.

Source: US6416975B1 (Gliatech, Inc., priority 1998, dated 2002)
